In one data set the test system is HepG2. In words: Cytotoxicity against human HepG2 cells after 2 days by alamar blue assay. Type of data set: functional, cell-based. To be noted: HepG2, 48 h. A general note: The colour change of resazurin is a common sign of viable cells or microbes.
In data set [1] the test system is SGC-7901. As to the kind of experiment: Cytotoxicity against human SGC7901 cells after 2 days by alamar blue assay. In kind it is functional, cell-based. To be noted: SGC-7901, 48 h.
A short description of data set [2]: Cytotoxicity against human HO8910 cells after 2 days by alamar blue assay. Type of data set: functional, cell-based. The note with it: HO-8910, 48 h.
Another data set concerns HEK293. In words: Cytotoxicity against human HEK293 cells after 2 days by alamar blue assay. The note with it: HEK293, 48 h. Type of data set: cell-based.
Data set [3] in a line: Ratio of compound IC50 to 5-Fluorouracil IC50 for human HEK293 cells after 2 days by alamar blue assay. Type of data set: ADME, cell-based. The note with it: read-out: Ratio IC50.
Data set [4] in a line: Ratio of compound IC50 to emodin IC50 for human HEK293 cells after 2 days by alamar blue assay. To be noted: read-out: Ratio IC50. In kind it is ADME, cell-based.
The subject of data set [5] is SGC-7901. As to the kind of experiment: Ratio of emodin IC50 to compound IC50 for human SGC7901 cells after 2 days by alamar blue assay. In kind it is functional.

The IC50 is the concentration that gives 50% inhibition. With `COc1cc(OC)c2c(c1)C(=O)c1cc(C)c(Cn3cc(F)c(=O)n(Cc4cccc(F)c4)c3=O)c(OC)c1C2=O`, the IC50 (in the data set on HepG2; with SGC-7901 [1]; in data set [2]; with HEK293 (read-out: IC50)) was above 100 µM throughout.
Take `Cc1cc(O)c2c(c1)C(=O)c1cc(O)cc(O)c1C2=O` [EMODIN]: the IC50 was determined as 13.1 µM in the data set on HepG2, 61.3 µM with SGC-7901 [1], 16 µM in data set [2] and 1.3 µM with HEK293 (read-out: IC50).
Turning to `CCn1c(=O)c(F)cn(Cc2c(C)cc3c(c2OC)C(=O)c2c(OC)cc(OC)cc2C3=O)c1=O`, the IC50 (in the data set on HepG2; in the data set with SGC-7901 [1]; in data set [2]) was above 100 µM each time.
As to `COc1cc(OC)c2c(c1)C(=O)c1cc(C)c(Cn3cc(F)c(=O)n(Cc4ccccc4F)c3=O)c(OC)c1C2=O`, the 50% inhibitory concentration (IC50) in the data set on HepG2 is above 100 µM; in the data set with SGC-7901 [1], 61 µM; in data set [2], 91.1 µM; with HEK293 (read-out: IC50), 66.6 µM. In addition, the selectivity ratio at 48 h in data set [3] worked out at 1.5.
Consider `C/C=C/Cn1c(=O)c(F)cn(Cc2c(C)cc3c(c2OC)C(=O)c2c(OC)cc(OC)cc2C3=O)c1=O`, for which the IC50 (in the data set on HepG2; in the data set on SGC-7901 [1]; in data set [2]) was above 100 µM in each case.
In the case of `COc1cc(OC)c2c(c1)C(=O)c1cc(C)c(Cn3cc(F)c(=O)n(CCc4ccccc4)c3=O)c(OC)c1C2=O`, the IC50 in the data set with HepG2 is 68.6 µM; with SGC-7901 [1], above 100 µM; in data set [2], 11.6 µM; in the data set on HEK293 (read-out: IC50), 4.6 µM.
As to `COc1cc(OC)c2c(c1)C(=O)c1cc(C)c(Cn3cc(F)c(=O)n(CC=C(C)C)c3=O)c(OC)c1C2=O`, the IC50 (in the data set on HepG2; in the data set with SGC-7901 [1]; in data set [2]) was above 100 µM each time.
Take `COc1cc(OC)c2c(c1)C(=O)c1cc(C)c(Cn3cc(F)c(=O)n(C)c3=O)c(OC)c1C2=O`: the IC50 (in the data set with HepG2; with SGC-7901 [1]; in data set [2]) was above 100 µM each time.
Take `COc1cc(OC)c2c(c1)C(=O)c1cc(C)c(Cn3cc(F)c(=O)n(Cc4ccccc4C#N)c3=O)c(OC)c1C2=O`: the IC50 in the data set on HepG2 is 39.9 µM; in the data set on SGC-7901 [1], 21.4 µM; in data set [2], 22.6 µM; in the data set with HEK293 (read-out: IC50), 29.6 µM. In data set [4], the selectivity ratio at 48 h turned out to be 23. Also, the “Ratio IC50” value in the data set with SGC-7901 [5] is 3.
For the compound `COc1cc(OC)c2c(c1)C(=O)c1cc(C)c(Cn3cc(F)c(=O)n(Cc4ccccc4)c3=O)c(OC)c1C2=O`, the IC50 is above 100 µM with HepG2, 39.5 µM with SGC-7901 [1], 45.1 µM in data set [2] and above 100 µM with HEK293 (read-out: IC50). For the same compound, the “Ratio IC50” value in the data set on SGC-7901 [5] is 1.5.
As to `CCCCn1c(=O)c(F)cn(Cc2c(C)cc3c(c2OC)C(=O)c2c(OC)cc(OC)cc2C3=O)c1=O`, the IC50 (with HepG2; in the data set with SGC-7901 [1]; in data set [2]) was above 100 µM each time.
Take `COc1cc(OC)c2c(c1)C(=O)c1cc(C)c(Cn3cc(F)c(=O)[nH]c3=O)c(OC)c1C2=O`: the IC50 (in the data set with HepG2; with SGC-7901 [1]; in data set [2]; in the data set on HEK293 (read-out: IC50)) was above 100 µM in each case.
For `O=c1[nH]cc(F)c(=O)[nH]1` [FLUOROURACIL], the IC50 in the data set with HepG2 came to 76.7 µM; in the data set on SGC-7901 [1], 76 µM; in data set [2] it was 85.5 µM; with HEK293, 42.9 µM.
Consider `COc1cc(OC)c2c(c1)C(=O)c1cc(C)c(Cn3cc(F)c(=O)n(Cc4ccc5c(c4)OCO5)c3=O)c(OC)c1C2=O`, for which the IC50 in the data set with HepG2 is 91 µM; in the data set with SGC-7901 [1], above 100 µM; in data set [2] it was above 100 µM; in the data set on HEK293 (read-out: IC50) it was 30 µM.

Source of the values: ChEMBL document CHEMBL1926553, “Synthesis and antitumor activity of conjugates of 5-Fluorouracil and emodin” (Eur J Med Chem, 2012).
